Measured values reported in patent US20010034365A1, “Halogen substituted carbamate compounds from 2-phenyl-1,2-ethanediol” (priority 1996, published 2001).

Tests used:
[1] = test system: mice (CF-1 strain); assay: Maximal ElectroShock (MES) test for anticonvulsants; format: in vivo; conditions: dosed orally
Experimental: The therapeutic use of the compounds claimed in the present invention as anticonvulsants has been proven by the “Maximal ElectroShock (MES)” test, which is a well-established pharmacological screening method for anticonvulsants against partial seizures, and the results are presented in Table 1. The procedure employed in the MES test for anticonvulsants follows. The compound dosing, solutions were prepared in saline, and the subject, namely, mice (CF-1 strain), were dosed orally. After the designated number of hours, maximal electroshock was induced in mice via corneal electrodes using IITC Life Science model 11A Shocker at 50 mA-60 Hz for […]. Upon inducing, maximal electroshock, the elimination of hindlimb tonic extension was considered as providing evidence of the protection by an anticonvulsant. Median efficacy dose (ED50) levels were determined using three different dose levels with at least 6 mice in each group.

[2] = test system: mice (CF-1 strain); assay: as above; format: in vivo; conditions: ip, Hour 1, elimination of hindlimb tonic extension
[3] = Hour 1, elimination of hindlimb tonic extension
[4] = Hour 4, elimination of hindlimb tonic extension

Row | Compound | ED50 [1, 3] [mg/kg] | ED50 [1, 4] [mg/kg] | further results
1 | NC(=O)OCC(OC(N)=O)c1ccccc1Cl (stereo not drawn) [Entry 5, (DL)-(2-(2-Chlorophenyl)-2-carbamoyloxyethyl)oxocarboxamide] | 25 | – | –
2 | CC(C)NC(=O)OC[C@H](OC(=O)NC(C)C)c1ccccc1Cl [Entry 15] | – | – | ED50 (mg/Kg) [2]: ≈10 (ip) mg/Kg
3 | NC(=O)OCC(OC(N)=O)c1c(Cl)cccc1Cl (stereo not drawn) [Entry 11, (DL)-(2-(2,6-dichlorophenyl)-2-carbamoyloxyethyl)-oxocarboxamide] | 7.4 | – | –
4 | O=C(Nc1ccccc1)OC[C@H](OC(=O)Nc1ccccc1)c1ccccc1Cl [Entry 16, (R)-N-Phenyl(2-(2-chlorophenyl)-2-N-phenylcarbamoyloxyethyl)-oxocarboxamide] | – | >20 | –
5 | (R)-(2-(2-Chlorophenyl)-2-hydroxyethyl)oxocarboxamide [Entry 3] | 50.0 | – | –
6 | NC(=O)OCC(O)c1ccccc1Cl (stereo not drawn) [Entry 1, (DL)-(2-(2-chlorophenyl)-2-hydroxyethyl)oxocarboxamide] | 33.7 | – | –
7 | NC(=O)OC[C@H](OC(N)=O)c1ccccc1Cl [Entry 13, (R)-(2-(2-Chlorophenyl)-2-N-carbamoyloxyethyl)oxocarboxamide] | – | 8.9 | –
8 | (R)-(2-(2,6-Dichlorophenyl)-carbamoyloxyethyl)oxocarboxamide [Entry 12] | 10.7 | – | –
9 | CNC(=O)OC[C@H](OC(=O)NC)c1ccccc1Cl [Entry 14] | – | >20 | –
10 | (R)-(2-(2-Chlorophenyl)-2-carbamoyloxyethyl)oxocarboxamide [Entry 6] | 16.0 | – | –
11 | (S)-(2-(2-Chlorophenyl)-2-carbamoyloxyethyl)oxocarboxamide [Entry 7] | 22.0 | – | –
12 | (S)-(2-(2-chlorophenyl)-2-hydroxyethyl)oxocarboxamide [Entry 2] | 13.0 | – | –
13 | (R)-(2-(4-Chlorophenyl)-2-carbamoyloxyethyl)oxocarboxamide [Entry 9] | 26.2 | – | –
14 | O=C(NCc1ccccc1)OC[C@H](OC(=O)NCc1ccccc1)c1ccccc1Cl [Entry 17, (R)-N-Benzyl(2-(2-chlorophenyl)-2-N-benzylcarbamoyloxyethyl)-oxocarboxamide] | – | >20 | –
15 | (S)-(2-(4-Chlorophenyl)-2-carbamoyloxyethyl)oxocarboxamide [Entry 10] | – | 21.5 | –
16 | NC(=O)OCC(OC(N)=O)c1ccc(Cl)cc1 (stereo not drawn) [Entry 8, (DL)-(2-(4-Chlorophenyl)-2-carbamoyloxyethyl)oxocarboxamide] | 29.1 | – | –
